Measurements taken from paper PMC5218480 (PLoS ONE, 2017).

Tested on: MV-4-11 cells
Assay: Gene expression microarray analysis (Affymetrix PrimeView) and GSEA
Type: cell-based, human
Parameters: RFU PODN (11730768_x_at) / Fold change /veh PODN (11730768_x_at) / RFU LINC00158 (11744669_a_at) / Fold change /veh LINC00158 (11744669_a_at) / RFU DUSP10 (11751237_a_at) / Fold change /veh DUSP10 (11751237_a_at) / RFU ID3 (11757404_x_at) / Fold change /veh ID3 (11757404_x_at) / RFU PLEKHG5 (11737974_s_at) / Fold change /veh PLEKHG5 (11737974_s_at) / RFU LRRC4B (11730491_at) / Fold change /veh LRRC4B (11730491_at) / RFU GIMAP4 (11747438_a_at) / Fold change /veh GIMAP4 (11747438_a_at) / RFU KRT8 (11758183_x_at) / Fold change /veh KRT8 (11758183_x_at) / RFU CNN1 (11734310_a_at) / Fold change /veh CNN1 (11734310_a_at) / RFU VPS37D (11726825_at) / Fold change /veh VPS37D (11726825_at) / RFU C10orf10 (11716522_x_at) / Fold change /veh C10orf10 (11716522_x_at) / RFU KIR2DL2 /// KIR2DL4 /// KIR2DL5A /// KIR2DL5B /// KIR2DS1 /// KIR2DS2 /// KIR2DS3 /// KIR2DS4 /// KIR3DL3 /// KIR3DL3 /// KIR3DS1 (11738374_at) / Fold change /veh KIR2DL2 /// KIR2DL4 /// KIR2DL5A /// KIR2DL5B /// KIR2DS1 /// KIR2DS2 /// KIR2DS3 /// KIR2DS4 /// KIR3DL3 /// KIR3DL3 /// KIR3DS1 (11738374_at) / RFU C1QL1 (11718748_at) / Fold change /veh C1QL1 (11718748_at) / RFU TMPRSS4 (11747572_a_at) / Fold change /veh TMPRSS4 (11747572_a_at) / RFU HAMP (11756126_x_at) / Fold change /veh HAMP (11756126_x_at) / RFU RNFT2 (11725882_a_at) / Fold change /veh RNFT2 (11725882_a_at) / RFU NR4A2 (11747474_a_at) / Fold change /veh NR4A2 (11747474_a_at) / RFU ABCC12 (11746883_a_at) / Fold change /veh ABCC12 (11746883_a_at) / RFU TMEM136 (11760407_x_at) / Fold change /veh TMEM136 (11760407_x_at) / RFU CLDN22 /// WWC2 (11732394_at) / Fold change /veh CLDN22 /// WWC2 (11732394_at) / RFU HLA-DPB1 (11760878_x_at) / Fold change /veh HLA-DPB1 (11760878_x_at) / RFU SPINT1 (11716480_a_at) / Fold change /veh SPINT1 (11716480_a_at) / RFU GAP43 (11754022_s_at) / Fold change /veh GAP43 (11754022_s_at) / RFU A4GNT (11735810_at) / Fold change /veh A4GNT (11735810_at) / RFU PRB3 (11715151_x_at) / Fold change /veh PRB3 (11715151_x_at) / RFU TUBB4B (11761932_at) / Fold change /veh TUBB4B (11761932_at) / RFU CAPN14 (11732068_a_at) / Fold change /veh CAPN14 (11732068_a_at) / RFU TMCC2 (11721928_a_at) / Fold change /veh TMCC2 (11721928_a_at) / RFU IRGQ (11745062_a_at) / Fold change /veh IRGQ (11745062_a_at) / RFU FAM174B (11720279_a_at) / Fold change /veh FAM174B (11720279_a_at) / RFU TMPRSS4 (11748680_a_at) / Fold change /veh TMPRSS4 (11748680_a_at) / RFU FAM212B (11763350_a_at) / Fold change /veh FAM212B (11763350_a_at) / RFU PLEKHG5 (11743358_a_at) / Fold change /veh PLEKHG5 (11743358_a_at) / RFU ZSCAN30 (11745921_a_at) / Fold change /veh ZSCAN30 (11745921_a_at) / RFU CMKLR1 (11741424_a_at) / Fold change /veh CMKLR1 (11741424_a_at) / RFU LOC101060620 /// MAPK8IP1 (11723275_at) / Fold change /veh LOC101060620 /// MAPK8IP1 (11723275_at) / RFU SPTSSB (11747773_x_at) / Fold change /veh SPTSSB (11747773_x_at) / RFU PRSS12 (11739890_at) / Fold change /veh PRSS12 (11739890_at) / RFU BIN1 (11741810_x_at) / Fold change /veh BIN1 (11741810_x_at) / RFU WNT11 (11732464_a_at) / Fold change /veh WNT11 (11732464_a_at) / RFU C10orf10 (11716521_a_at) / Fold change /veh C10orf10 (11716521_a_at) / RFU C5orf56 (11738089_at) / Fold change /veh C5orf56 (11738089_at) / RFU CYB561 (11721691_x_at) / Fold change /veh CYB561 (11721691_x_at) / RFU ANKRD19P (11752326_a_at) / Fold change /veh ANKRD19P (11752326_a_at) / RFU OR2T12 /// OR2T33 /// OR2T8 (11738714_s_at) / Fold change /veh OR2T12 /// OR2T33 /// OR2T8 (11738714_s_at) / RFU VCAN (11748164_a_at) / Fold change /veh VCAN (11748164_a_at) / RFU JSRP1 (11732532_at) / Fold change /veh JSRP1 (11732532_at) / RFU KRTAP10-11 (11738290_x_at) / Fold change /veh KRTAP10-11 (11738290_x_at) / RFU MYO3A (11730013_a_at) / Fold change /veh MYO3A (11730013_a_at) / RFU EBF3 (11725865_a_at) / Fold change /veh EBF3 (11725865_a_at) / RFU CAMK2N1 (11719241_x_at) / Fold change /veh CAMK2N1 (11719241_x_at) / RFU C5orf56 (11738088_a_at) / Fold change /veh C5orf56 (11738088_a_at) / RFU OLFML3 (11715873_a_at) / Fold change /veh OLFML3 (11715873_a_at) / RFU LOC100653217 /// NTM (11731650_a_at) / Fold change /veh LOC100653217 /// NTM (11731650_a_at) / RFU MAPK11 (11762145_a_at) / Fold change /veh MAPK11 (11762145_a_at) / RFU FIZ1 (11724087_x_at) / Fold change /veh FIZ1 (11724087_x_at) / RFU OASL (11726364_x_at) / Fold change /veh OASL (11726364_x_at) / RFU SOX15 (11748057_x_at) / Fold change /veh SOX15 (11748057_x_at) / RFU CD79A (11719716_a_at) / Fold change /veh CD79A (11719716_a_at) / RFU HIST1H1D (11736915_at) / Fold change /veh HIST1H1D (11736915_at) / RFU CASKIN2 (11723855_a_at) / Fold change /veh CASKIN2 (11723855_a_at) / RFU LOC730098 (11760151_x_at) / Fold change /veh LOC730098 (11760151_x_at) / RFU OR4N2 (11742367_at) / Fold change /veh OR4N2 (11742367_at) / RFU PRRT2 (11749266_a_at) / Fold change /veh PRRT2 (11749266_a_at) / RFU SNX32 (11753110_a_at) / Fold change /veh SNX32 (11753110_a_at) / RFU CDHR5 (11726645_a_at) / Fold change /veh CDHR5 (11726645_a_at) / RFU RCAN1 (11760418_a_at) / Fold change /veh RCAN1 (11760418_a_at) / RFU FAM167A (11723789_a_at) / Fold change /veh FAM167A (11723789_a_at) / RFU FAM26E (11764081_at) / Fold change /veh FAM26E (11764081_at) / RFU ISYNA1 (11749810_s_at) / Fold change /veh ISYNA1 (11749810_s_at) / RFU ACY1 (11761880_at) / Fold change /veh ACY1 (11761880_at) / RFU 11764098_at / Fold change /veh 11764098_at / RFU SAMD14 (11745864_x_at) / Fold change /veh SAMD14 (11745864_x_at) / RFU NPB (11741838_a_at) / Fold change /veh NPB (11741838_a_at) / RFU TMPRSS6 (11731388_a_at) / Fold change /veh TMPRSS6 (11731388_a_at) / RFU KRTAP10-2 (11738614_at) / Fold change /veh KRTAP10-2 (11738614_at) / RFU ARHGAP8 /// PRR5-ARHGAP8 (11727945_x_at) / Fold change /veh ARHGAP8 /// PRR5-ARHGAP8 (11727945_x_at) / RFU KRTAP5-7 /// NADSYN1 (11734609_at) / Fold change /veh KRTAP5-7 /// NADSYN1 (11734609_at) / RFU RASL12 (11751679_a_at) / Fold change /veh RASL12 (11751679_a_at) / RFU CDKN2B (11736163_a_at) / Fold change /veh CDKN2B (11736163_a_at) / RFU PRF1 (11729649_at) / Fold change /veh PRF1 (11729649_at) / RFU, ZNF638 /// ZNF638-IT1 / Fold change vs veh, ZNF638 /// ZNF638-IT1 / RFU, PANK3 / Fold change vs veh, PANK3 / RFU, SH3YL1 / Fold change vs veh, SH3YL1 / RFU, ZEB2 / Fold change vs veh, ZEB2 / RFU, NRIP1 / Fold change vs veh, NRIP1 / RFU, PTTG1IP / Fold change vs veh, PTTG1IP / RFU, CAPN2 / Fold change vs veh, CAPN2 / RFU, MED14 / Fold change vs veh, MED14 / RFU, SNORA58 / Fold change vs veh, SNORA58 / RFU, C1orf63 / Fold change vs veh, C1orf63 / RFU, LRRFIP1 / Fold change vs veh, LRRFIP1 / RFU, NDUFAF7 / Fold change vs veh, NDUFAF7 / RFU, SLC12A2 / Fold change vs veh, SLC12A2 / RFU, IBTK / Fold change vs veh, IBTK / RFU, ESF1 / Fold change vs veh, ESF1 / Fold change vs veh, TMEM50B / RFU, TAOK1 / Fold change vs veh, TAOK1 / RFU, ACBD3 / Fold change vs veh, ACBD3 / RFU, TMA16 / Fold change vs veh, TMA16 / RFU, RWDD3 / Fold change vs veh, RWDD3 / RFU, BCAT1 / Fold change vs veh, BCAT1 / RFU, EDEM3 / Fold change vs veh, EDEM3 / RFU, TMEM33 / Fold change vs veh, TMEM33 / RFU, WDR75 / Fold change vs veh, WDR75 / RFU, AHCTF1 / Fold change vs veh, AHCTF1 / RFU, TFRC / Fold change vs veh, TFRC / RFU, ZDHHC17 / Fold change vs veh, ZDHHC17 / RFU, NOM1 / Fold change vs veh, NOM1 / RFU, ARL8B / Fold change vs veh, ARL8B / RFU, ZBTB11 / Fold change vs veh, ZBTB11 / RFU, TAMM41 / Fold change vs veh, TAMM41 / RFU, KIAA1704 /// LOC100996395 / Fold change vs veh, KIAA1704 /// LOC100996395 / RFU, ING1 / Fold change vs veh, ING1 / RFU, TRMT61B / Fold change vs veh, TRMT61B / RFU, FUBP3 / Fold change vs veh, FUBP3 / RFU, TP53 / Fold change vs veh, TP53 / RFU, TNKS2 / Fold change vs veh, TNKS2 / RFU, ZFP14 / Fold change vs veh, ZFP14 / RFU, ACTR2 / Fold change vs veh, ACTR2 / RFU, PPP3R1 / Fold change vs veh, PPP3R1 / RFU, PIK3R1 / Fold change vs veh, PIK3R1 / RFU, HNRNPA1 / Fold change vs veh, HNRNPA1 / RFU, RNF170 / Fold change vs veh, RNF170 / RFU, ZNF28 / Fold change vs veh, ZNF28 / RFU, RNGTT / Fold change vs veh, RNGTT / RFU, OGT / Fold change vs veh, OGT / RFU, BRD1 / Fold change vs veh, BRD1 / RFU, MARS / Fold change vs veh, MARS / RFU, ZNF655 / Fold change vs veh, ZNF655 / RFU, FAHD1 / Fold change vs veh, FAHD1 / RFU, BDP1 / Fold change vs veh, BDP1 / RFU, LRRCC1 / Fold change vs veh, LRRCC1 / RFU, ARID1A / Fold change vs veh, ARID1A / RFU, ZNF146 / Fold change vs veh, ZNF146 / RFU, ZNF330 / Fold change vs veh, ZNF330 / RFU, GPN3 / Fold change vs veh, GPN3 / RFU, C9orf123 / Fold change vs veh, C9orf123 / RFU, N4BP2L2 / Fold change vs veh, N4BP2L2 / RFU, ARFIP1 / Fold change vs veh, ARFIP1 / RFU, FAM179B / Fold change vs veh, FAM179B / RFU, BCL10 / Fold change vs veh, BCL10 / RFU, UHRF1BP1L / Fold change vs veh, UHRF1BP1L / RFU, BET1 / Fold change vs veh, BET1 / RFU, CNOT2 / Fold change vs veh, CNOT2 / RFU, ZNF268 / Fold change vs veh, ZNF268 / Fold change vs veh, ZNF507 / RFU, DGCR2 / Fold change vs veh, DGCR2 / RFU, WDSUB1 / Fold change vs veh, WDSUB1 / Fold change vs veh, HSP90B1 /// MIR3652 / RFU, ADSS / Fold change vs veh, ADSS / RFU, GK / Fold change vs veh, GK / RFU, ZNF148 / Fold change vs veh, ZNF148 / RFU, TAF9 / Fold change vs veh, TAF9 / RFU, SLC1A5 / Fold change vs veh, SLC1A5 / RFU, SLMO2 / Fold change vs veh, SLMO2 / RFU, ABCC4 / Fold change vs veh, ABCC4 / RFU, LOC101060439 /// RAP1B / Fold change vs veh, LOC101060439 /// RAP1B / RFU, RFX7 / Fold change vs veh, RFX7 / RFU, GTPBP10 / Fold change vs veh, GTPBP10 / RFU, CNEP1R1 / Fold change vs veh, CNEP1R1 / RFU, BIVM-ERCC5 /// ERCC5 / Fold change vs veh, BIVM-ERCC5 /// ERCC5 / RFU, ILF3 / Fold change vs veh, ILF3 / RFU 11762660_at / Fold change /veh 11762660_at / RFU VCAN (11757783_s_at) / Fold change /veh VCAN (11757783_s_at) / RFU DDX43 (11728927_at) / Fold change /veh DDX43 (11728927_at) / RFU KRT8 (11758188_x_at) / Fold change /veh KRT8 (11758188_x_at) / RFU NKD1 (11759106_at) / Fold change /veh NKD1 (11759106_at) / RFU SRD5A1 (11742802_a_at) / Fold change /veh SRD5A1 (11742802_a_at) / RFU TPSAB1 /// TPSB2 (11721975_s_at) / Fold change /veh TPSAB1 /// TPSB2 (11721975_s_at) / RFU GSTM3 (11746129_a_at) / Fold change /veh GSTM3 (11746129_a_at) / RFU IL23R (11737362_x_at) / Fold change /veh IL23R (11737362_x_at) / RFU TMEM51 (11727254_a_at) / Fold change /veh TMEM51 (11727254_a_at) / RFU PIWIL2 (11732686_x_at) / Fold change /veh PIWIL2 (11732686_x_at) / RFU ORM1 (11744905_x_at) / Fold change /veh ORM1 (11744905_x_at) / RFU CCDC152 (11743942_at) / Fold change /veh CCDC152 (11743942_at) / RFU ECM1 (11717891_a_at) / Fold change /veh ECM1 (11717891_a_at) / RFU IL23R (11748794_a_at) / Fold change /veh IL23R (11748794_a_at) / RFU TNFAIP8L3 (11732012_x_at) / Fold change /veh TNFAIP8L3 (11732012_x_at) / RFU MBOAT4 (11741988_at) / Fold change /veh MBOAT4 (11741988_at) / RFU 11764193_at / Fold change /veh 11764193_at / RFU TMEM53 (11763286_at) / Fold change /veh TMEM53 (11763286_at) / RFU MAGEB2 (11727129_at) / Fold change /veh MAGEB2 (11727129_at) / RFU TMEM200A (11744735_a_at) / Fold change /veh TMEM200A (11744735_a_at) / RFU CCDC152 (11751479_a_at) / Fold change /veh CCDC152 (11751479_a_at) / RFU FAM211A (11726209_a_at) / Fold change /veh FAM211A (11726209_a_at) / RFU RGS16 (11746705_a_at) / Fold change /veh RGS16 (11746705_a_at) / RFU VCAN (11755009_s_at) / Fold change /veh VCAN (11755009_s_at) / RFU RHOB (11743442_s_at) / Fold change /veh RHOB (11743442_s_at) / RFU RGS16 (11720943_a_at) / Fold change /veh RGS16 (11720943_a_at) / RFU RGS16 (11720944_at) / Fold change /veh RGS16 (11720944_at) / RFU, VPS4B / Fold change vs veh, VPS4B / RFU, CREB1 / Fold change vs veh, CREB1 / RFU, DNAJC13 / Fold change vs veh, DNAJC13 / RFU, GNAQ / Fold change vs veh, GNAQ / RFU, CDK5R1 / Fold change vs veh, CDK5R1 / RFU, ZRANB3 / Fold change vs veh, ZRANB3 / RFU, CUL4A / Fold change vs veh, CUL4A / RFU, CCNY / Fold change vs veh, CCNY / RFU, UFL1 / Fold change vs veh, UFL1 / RFU, COG3 / Fold change vs veh, COG3 / RFU, DIAPH2 / Fold change vs veh, DIAPH2 / RFU, SKA2 / Fold change vs veh, SKA2 / RFU, AFF3 / Fold change vs veh, AFF3 / RFU, LMF1 / Fold change vs veh, LMF1 / RFU, IPO11 / Fold change vs veh, IPO11 / RFU, DFFB / Fold change vs veh, DFFB / RFU, FOXP1 / Fold change vs veh, FOXP1 / RFU, CARD8 / Fold change vs veh, CARD8 / RFU, STRN3 / Fold change vs veh, STRN3 / RFU, ADK / Fold change vs veh, ADK / RFU, RASSF2 / Fold change vs veh, RASSF2 / RFU, WIPF1 / Fold change vs veh, WIPF1 / RFU, LARP1B / Fold change vs veh, LARP1B / RFU, RASA1 / Fold change vs veh, RASA1 / RFU, RB1 / Fold change vs veh, RB1 / RFU, PPFIA1 / Fold change vs veh, PPFIA1 / RFU, MAT2A / Fold change vs veh, MAT2A / RFU, CCT5 / Fold change vs veh, CCT5 / RFU, WDR92 / Fold change vs veh, WDR92 / RFU, CUX1 / Fold change vs veh, CUX1 / RFU, TTC7A / Fold change vs veh, TTC7A / RFU, TMEM135 / Fold change vs veh, TMEM135 / RFU, DEPTOR / Fold change vs veh, DEPTOR / RFU, CPM / Fold change vs veh, CPM / RFU, DNAJB6 / Fold change vs veh, DNAJB6 / RFU, CACNA2D3 / Fold change vs veh, CACNA2D3 / RFU, DTX4 / Fold change vs veh, DTX4 / RFU, TFCP2 / Fold change vs veh, TFCP2 / RFU, GMCL1 /// GMCL1P1 / Fold change vs veh, GMCL1 /// GMCL1P1 / RFU, AEBP2 / Fold change vs veh, AEBP2 / RFU, SNHG1 /// SNORD22 /// SNORD25 /// SNORD26 /// SNORD27 /// SNORD28 /// SNORD29 /// SNORD31 / Fold change vs veh, SNHG1 /// SNORD22 /// SNORD25 /// SNORD26 /// SNORD27 /// SNORD28 /// SNORD29 /// SNORD31 / Fold change (Aza/veh), C12orf56 (ProbeSet 11735607_a_at) / Fold change (ACY-1035/veh), C12orf56 (ProbeSet 11735607_a_at) / Fold change (Aza/veh), FGFR1OP (ProbeSet 11751329_s_at) / Fold change (ACY-1035/veh), FGFR1OP (ProbeSet 11751329_s_at) / Fold change (Aza/veh), VPS36 (ProbeSet 11739960_a_at) / Fold change (ACY-1035/veh), VPS36 (ProbeSet 11739960_a_at) / RFU SYPL1 (11715823_x_at) / Fold change /veh SYPL1 (11715823_x_at) / RFU IGFBP7 (11715501_s_at) / Fold change /veh IGFBP7 (11715501_s_at) / RFU REEP3 (11722064_at) / Fold change /veh REEP3 (11722064_at) / RFU IGLL1 (11728026_x_at) / Fold change /veh IGLL1 (11728026_x_at): dose or concentration left out as unconfirmed
Details: ProbeSet 11743362_s_at; LIST B

Nc1ncn([C@@H]2O[C@H](CO)[C@@H](O)[C@H]2O)c(=O)n1 [azacitidine]
Fold change vs veh, ADSS: 0.89
